Experimental findings from patent US20170027893A1, “THIOSEMICARBAZONES INHIBITORS OF LYSOPHOSPHATIDIC ACID ACYLTRANSFERASE AND USES THEREOF” (H. LEE CANCER CENTER AND RESEARCH INSTITUTE, INC., priority 2014, published 2017) are described below.

Several values for one entry are separate records, joined by “and”; a condition that tells them apart may be missing. Equal entries are not always repeated.

The first experiment concerns the target T1, LPAAT-β (Homo sapiens, UniProt O15120).
T1 sequence (O15120 24-278): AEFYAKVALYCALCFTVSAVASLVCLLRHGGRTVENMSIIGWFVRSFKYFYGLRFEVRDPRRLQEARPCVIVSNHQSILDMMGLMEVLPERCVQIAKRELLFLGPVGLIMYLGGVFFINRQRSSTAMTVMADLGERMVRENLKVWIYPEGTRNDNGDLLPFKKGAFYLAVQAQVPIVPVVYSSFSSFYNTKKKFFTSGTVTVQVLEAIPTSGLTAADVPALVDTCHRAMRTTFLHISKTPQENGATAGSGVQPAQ
Kind of experiment: DTNB (Ellman's reagent) 96-well plate screening assay of LPAAT-β enzymatic activity. The following applies: Table 4; read-out: IC50 (μm) (DTNB assay) (converted). Further details: The assay utilizes full-length, recombinant, baculovirus-produced LPAAT-β; made in house. Type of experiment: biochemical. The method, then:
Screening with a modified screening assay in 96-well plate format for LPAAT-β enzymatic activity was performed as reported by Aguado and Campbell (Aguado et al., Characterization of a human lysophosphatidic acid acyltransferase that is encoded by a gene located in the class III region of the human major histocompatibility complex. J. Biol. Chem. 1998, 273, 4096-105).
The assay utilizes full-length, recombinant, baculovirus-produced LPAAT-β, which catalyzes the production of dioleoyl-[…] from the enzymatic substrates oleoyl-lysophosphatidic acid (LPA) and oleoyl-coenzyme A (Scheme 2). The ability of the compound to inhibit the LPAAT-β activity was assayed by the colorimetric measurement of the reaction of the free thiol group of the released coenzyme A with Ellman's reagent [5,5′-dithiobis-(2-nitrobenzoic acid) or DTNB] (Riener et al., Quick measurement of protein sulfhydryls with Ellman's reagent and with 4,4′-dithiodipyridine. Anal. Bioanal. Chem. 2002, 373, 266-76). […] A hit identified from the Life Chemicals library 6a (IC50 100 nM) was selected for further investigation.
For orientation: In Ellman's method for cholinesterases, released thiocholine reacts with DTNB.
On to `C=CCc1cc(CCCCC)cc(C(C)=NNC(N)=S)c1O` [Compound 19j], for which the 50% inhibitory concentration (IC50) is 0.19 µM.

Staying with this experiment, now noted: read-out: IC50 (μM) (DTNB assay) (converted).
Take `Cc1cccc(C=NNC(N)=S)c1O` [Compound 6h]: the half-inhibitory concentration (IC50) is 7.5 µM.
On the same count and under the same terms, then `NC(=S)NN=Cc1cccc(F)c1O` [Compound 6e], with 4.3 µM; and `CCCCCc1cccc(C=NNC(N)=S)c1O` [Compound 6p], with > 100 µM; and `NC(=S)NN=Cc1cccc(-c2ccccc2)c1O` [Compound 6m], with 40 ± 10 µM.
Regarding `CCc1cccc(C(C)=NNC(N)=S)c1O` [Compound 15c], the IC50 is 0.73 ± 0.76 µM.
The same measure, in the same setting: then `C=CCc1cccc(C(C)=NNC(N)=S)c1O` [Compound 15b], with 0.52 ± 0.25 µM.
In the case of `NC(=S)NN=Cc1cccc(Br)c1O` [Compound 6g], the IC50 is 1.5 µM.
For `CC(C)c1cccc(C=NNC(N)=S)c1O` [Compound 6l], the IC50 is 13 ± 8.4 µM.
With `C=CCc1cc(Cl)cc(C(C)=NNC(N)=S)c1O` [Compound 15d], the IC50 was 0.2 µM.
With `NC(=S)N/N=C/c1ccc2ccccc2c1O` [Compound 6s], the half-maximal inhibitory concentration (IC50) was 6.4 ± 4.7 µM.
On the same count and under the same terms, as for `CCCc1cccc(C=NNC(=S)NC)c1O` [Compound 10b], the figure is 14 ± 12 µM.
As for `NC(=S)NN=Cc1cccc(CCCc2ccccc2)c1O` [Compound 6r], the half-maximal inhibitory concentration (IC50) is > 100 µM.
In the case of `C=CCc1cccc(C=NNC(=S)NC)c1O` [Compound 10a], the 50% inhibitory concentration (IC50) is 3.9 ± 2.3 µM.
Turning to `CC(=NNC(N)=S)c1cc(Cl)ccc1O` [Compound 15e], the half-maximal inhibitory concentration (IC50) is 2.8 µM.
With `C=CCc1cc(-c2ccccc2)cc(C(C)=NNC(N)=S)c1O` [Compound 19n], the half-inhibitory concentration (IC50) was 1.15 µM and 0.19 µM.
Turning to `NC(=S)NN=Cc1cccc(C2CCCCC2)c1O` [Compound 6n], the 50% inhibitory concentration (IC50) was > 100 µM.
Turning to `NC(=S)NN=Cc1cccc(Cl)c1O` [Compound 6f], the half-inhibitory concentration (IC50) was 2 µM.
Turning to `C=CCc1cc(C(C)=O)cc(C(C)=NNC(N)=S)c1O` [Compound 19l], the IC50 is 2.67 ± 0.25 µM.
In the case of `CC(=NNC(N)=S)c1cc(Cl)cc(Cl)c1O` [Compound 15f], the IC50 was 0.27 µM.
On to `NC(=S)NN=Cc1cccc(C(F)(F)F)c1O` [Compound 6i], for which the half-inhibitory concentration (IC50) was 7 µM.
Take `CCCCCCCc1cccc(C=NNC(N)=S)c1O` [Compound 6q]: the IC50 was > 100 µM.
On to `C=CCc1cccc(C=NN=c2[nH]c(-c3ccccc3)cs2)c1O` [Compound 11c], for which the IC50 was > 100 µM.

The next experiment addresses T1, LPAAT-β. Kind of experiment: secondary thin layer chromatography (TLC) assay measuring fluorescent PA. The class given is biochemical.
Details: not given
Further details: The assay utilizes full-length, recombinant, baculovirus-produced LPAAT-β; made in house.
Consider `Cc1cccc(C=NNC(N)=S)c1O` [Compound 6h], for which the IC50 was > 10 µM.
As for `NC(=S)NN=Cc1cccc(F)c1O` [Compound 6e], the 50% inhibitory concentration (IC50) is > 10 µM.
The same measure, in the same setting: then `CCCCCc1cccc(C=NNC(N)=S)c1O` [Compound 6p], with > 10 µM.
Take `NC(=S)NN=Cc1cccc(-c2ccccc2)c1O` [Compound 6m]: the IC50 was > 10 µM.
For the compound `CCc1cccc(C(C)=NNC(N)=S)c1O` [Compound 15c], the half-inhibitory concentration (IC50) was > 10 µM.
The same measure, in the same setting: as for `C=CCc1cccc(C(C)=NNC(N)=S)c1O` [Compound 15b], the figure is > 10 µM; as for `NC(=S)NN=Cc1cccc(Br)c1O` [Compound 6g], > 10 µM; as for `CC(C)c1cccc(C=NNC(N)=S)c1O` [Compound 6l], 30 µM.
For the compound `C=CCc1cc(Cl)cc(C(C)=NNC(N)=S)c1O` [Compound 15d], the IC50 was 32 µM.
Turning to `CCCc1cccc(C=NNC(N)=S)c1O` [Compound 6k], the IC50 amounted to 19 ± 11 µM.
As to `CCCc1cccc(C=NNC(=S)NC)c1O` [Compound 10b], the half-maximal inhibitory concentration (IC50) is > 10 µM.
In the case of `C=CCc1cccc(C=NNC(=S)NC)c1O` [Compound 10a], the IC50 is > 10 µM.
As to `CC(=NNC(N)=S)c1cc(Cl)ccc1O` [Compound 15e], the IC50 was > 10 µM.
As for `C=CCc1cc(-c2ccccc2)cc(C(C)=NNC(N)=S)c1O` [Compound 19n], the half-maximal inhibitory concentration (IC50) was 5.7 ± 2.5 µM.
In the case of `NC(=S)NN=Cc1cccc(C2CCCCC2)c1O` [Compound 6n], the IC50 was > 10 µM.
In the case of `NC(=S)NN=Cc1cccc(Cl)c1O` [Compound 6f], the IC50 is > 10 µM.
As for `C=CCc1cc(C(C)=O)cc(C(C)=NNC(N)=S)c1O` [Compound 19l], the concentration for half-maximal inhibition (IC50) was > 10 µM.
Take `CC(=NNC(N)=S)c1cc(Cl)cc(Cl)c1O` [Compound 15f]: the concentration for half-maximal inhibition (IC50) is > 10 µM.
Consider `CCCCc1cccc(C=NNC(N)=S)c1O` [Compound 6o], for which the IC50 is > 10 µM.
Consider `NC(=S)NN=Cc1cccc(C(F)(F)F)c1O` [Compound 6i], for which the 50% inhibitory concentration (IC50) was > 10 µM.
In the case of `CCCCCCCc1cccc(C=NNC(N)=S)c1O` [Compound 6q], the IC50 was 9.7 µM.
Regarding `C=CCc1cccc(C=NN=c2[nH]c(-c3ccccc3)cs2)c1O` [Compound 11c], the IC50 is > 10 µM.

Still in this experiment, the particulars now being: Table 4.
With `C=CCc1cc(CCCCC)cc(C(C)=NNC(N)=S)c1O` [Compound 19j], the IC50 was 3.2 µM.

The term IC50 denotes the concentration that gives 50% inhibition.
